This note sets out measurements from US11130780B2, “Inhibitors of growth factor activation enzymes” (Washington University, priority 2015, dated 2021).

What all share (format): biochemical
The target in experiment [1] is T1, HGFA (Homo sapiens, UniProt Q04756).
T1 construct: His6 tag (N); seven amino acid spacer and seven amino acid TEV cleavage site (N); Honey Bee melittin signal peptide (N); made in house; host or cells: High 5 insect cells (baculovirus; virus raised in Sf9)
T1 sequence (Q04756 373-655): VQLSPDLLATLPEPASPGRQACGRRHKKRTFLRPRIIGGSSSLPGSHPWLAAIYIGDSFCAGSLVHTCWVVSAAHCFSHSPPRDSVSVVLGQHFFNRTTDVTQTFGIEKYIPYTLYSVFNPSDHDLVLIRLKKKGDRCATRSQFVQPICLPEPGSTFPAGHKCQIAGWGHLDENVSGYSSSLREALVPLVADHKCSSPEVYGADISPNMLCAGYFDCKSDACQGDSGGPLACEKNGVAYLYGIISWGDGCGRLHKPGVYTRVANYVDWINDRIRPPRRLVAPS
Kind of experiment: Fluorescent kinetic enzyme inhibitor assay of HGFA. The settings on record: for pKi: Table 4.2, Boc-QLR-AMC substrate, read-out: HGFA Ki. The essentials:
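Recombinant His-tagged HGFA residues 373-655 from insect cells, with substrate at Km. Inhibitors in 11-point dilutions, 0-20 μM final, 2% DMSO, fluorescence (ex 380/em 460 nm) followed over time at room temperature. IC50 from four-parameter fit of mean velocity, average of three experiments.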

Experiment [2] addresses T1, HGFA. Kind of experiment: Chromogenic kinetic enzyme inhibitor assay of HGFA. The settings on record: Table 4.1; chromogenic substrate Pefachrome FVIIa. The text has this:
This PCR product was cloned into the SfoI-HindIII sites of a modified pFastBac HT baculovirus expression vector (Addgene, Cambridge, Mass.). This vector contains a six amino His tag followed by a seven amino spacer and a seven amino acid TEV cleavage site placed immediately downstream of the Honey Bee melittin signal peptide. Using a modified Bac to Bac Expression System (Life Technologies, Carlsbad, Calif.), recombinant HGFA bacmids were obtained by transforming DH10Bac Escherichia coli cells. To obtain HGFA containing baculovirus, purified bacmids were transfected into Sf9 insect cells. After 5 days in culture at 27° C., media was harvested from transfected Sf9 cells. This media was used to prepare baculovirus infected insect cells (BIICs). These BIIICs were used to infect High 5 insect cells. Four days post infection, media was harvested and recombinant protein prepared as follows. Media was chilled to 4° C. and spun at 4000×g for 20 minutes (all subsequent steps were performed at 4° C. unless noted). […] Concentrated media was then buffer exchanged in two steps, five volumes of 50 mM Na-phosphate, 500 mM NaCl, pH 6.2, followed by five volumes of 50 mM Na-phosphate, 500 mM NaCl, pH 7.5. […] After mixing this slurry for 12 hours, nickel agarose beads were allowed to settle by gravity and then loaded into a column. Beads were washed with buffer (25 mM Na-phosphate, 500 mM NaCl, 25 mM imidazole, pH 8) and the bound protein eluted using (25 mM Na-phosphate, 500 mM NaCl, 250 mM imidazole, pH 8). Using a Amicon Ultra-4 Centrifugal filters (#UFC801008, Merck Millipore, Ltd., Tullagreen, Ireland), peak protein fractions were concentrated and run over a Superdex-200 10/300 GL column (GE Healthcare Life Sciences, Piscataway, N.J.) in 10 mM Tris, 200 mM NaCl, 0.2 mM EDTA, pH 8. HGFA containing fractions were pooled, concentrated, made 50% glycerol, and stored at minus 20° C. Protein was quantitated using a modified Lowry protein assay (#500-0006, Bio-Rad Laboratories, Hercules, Calif.).
Using Gen 5 2.00 software program (Biotek, Winnoski, Vt.), a four parameter curve fit was used to determine the inhibitor IC50s from a plot of the mean reaction velocity versus the inhibitor concentration. The IC50 values represent the average of three separate experimental determinations.

The next experiment deals with T2, hepsin (Homo sapiens, UniProt P05981).
T2 construct: purchased R&D Systems 4776-SE-010
As to the kind of experiment: Fluorescent kinetic enzyme inhibitor assay of hepsin. The settings on record: for pIC50: Table 4.1; for pKi: Table 4.2, Boc-QAR-AMC substrate, read-out: Hepsin Ki. Here is the method:
(§1) Inhibitors (11-pt serial dilutions, 0-20 μM final concentration in reaction) were serially diluted in DMSO (2% DMSO final concentration) and then mixed with either recombinant serine protease domain of HGFA [Z. Han, P. K. Harris, D. E. Jones, R. Chugani, T. Kim, M. Agarwal, W. Shen, S. A. Wildman, J. W. Janetka, Acs Med Chem Lett 2014, 5, 1219-1224], matriptase (Charles Craik, UCSF) or hepsin* (#4776-SE-010, R&D Systems, Minneapolis, Minn.) in black 384 well plates (Corning #3575. Corning, N.Y.). […] The final substrate concentrations for all assays were at the Km for the respective enzymes. Changes in fluorescence (excitation at 380 nm and emission at 460 nm) were measured at room temperature over time in a Biotek Synergy 2 plate reader (Winnoski, Vt.). Using GraphPad Prism version 6.04 software program, (GraphPad Software, San Diego, Calif., www.graphpad.com), a four parameter curve fit was used to determine the inhibitor IC50s from a plot of the mean reaction velocity versus the inhibitor concentration. The IC50 values represent the average of three separate experimental determinations.

The target in the next experiment is T3, matriptase (Homo sapiens, UniProt Q9Y5Y6).
T3 construct: Charles Craik, UCSF (obtained from another laboratory)
T3 sequence (Q9Y5Y6 615-855 limits assumed): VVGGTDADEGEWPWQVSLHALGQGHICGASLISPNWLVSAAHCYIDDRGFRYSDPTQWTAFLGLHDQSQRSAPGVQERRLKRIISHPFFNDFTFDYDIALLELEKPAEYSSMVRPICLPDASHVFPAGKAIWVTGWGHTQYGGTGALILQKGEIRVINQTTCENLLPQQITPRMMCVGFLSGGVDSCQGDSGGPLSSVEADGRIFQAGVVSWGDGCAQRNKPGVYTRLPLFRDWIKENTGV
As to the kind of experiment: Fluorescent kinetic enzyme inhibitor assay of matriptase. To be noted: for pIC50: Table 4.1. Here is the method: as §1

pIC50, pKi: −log10 of the molar value.

T2 sequence (P05981 163-417 limits assumed): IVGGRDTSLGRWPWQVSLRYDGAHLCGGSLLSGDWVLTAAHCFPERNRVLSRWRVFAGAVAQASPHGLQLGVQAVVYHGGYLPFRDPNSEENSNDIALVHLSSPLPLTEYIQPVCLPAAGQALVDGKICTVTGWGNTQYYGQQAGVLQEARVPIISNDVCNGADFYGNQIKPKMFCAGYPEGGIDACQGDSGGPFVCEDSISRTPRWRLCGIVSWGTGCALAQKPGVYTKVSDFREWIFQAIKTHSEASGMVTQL
T2 sequence (P05981 45-162 partner limits assumed): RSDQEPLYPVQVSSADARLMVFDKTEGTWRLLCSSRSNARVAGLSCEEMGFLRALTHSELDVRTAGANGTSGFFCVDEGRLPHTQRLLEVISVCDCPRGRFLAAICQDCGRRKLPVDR

With `CC(=O)N[C@@H](CC(C)C)C(=O)N[C@@H](CC(C)C)C(=O)N[C@@H](CCCNC(=N)N)C(=O)c1nccs1` [Ac-LLR-kt], the pKi at HGFA [1] was 6.60. Also, the pIC50 at HGFA [2] was 5.83.

`CC(=O)N[C@@H](CCCCN)C(=O)N[C@@H](CCC(N)=O)C(=O)N[C@@H](CC(C)C)C(=O)N[C@H](CCCNC(=N)N)C(=O)c1nccs1` [Compound 5-1, Ac-KQLdR-kt] showed a pIC50 on HGFA [2] of 5.26.

For `CC(=O)N[C@@H](CCCCN)C(=O)N[C@@H](Cc1c[nH]cn1)C(=O)N[C@@H](CC(C)C)C(=O)N[C@@H](CCCNC(=N)N)C(=O)c1nccs1` [Compound 5a, Ac-KHLR(SEQ ID NO: 2)-kt], the negative logarithm of the Ki (pKi) on HGFA [1] is 7.02. In addition, the pIC50 against HGFA [2] was 6.19.

The molecule `CC(=O)N[C@@H](CCCCN)C(=O)N[C@@H](Cc1c[nH]cn1)C(=O)N[C@@H](CC(C)C)C(=O)N[C@H](CCCNC(=N)N)C(=O)c1nccs1` [Compound 5a-1, Ac-KHLdR-kt] gave a pIC50 on HGFA [2] of 4.96.

For the molecule `CC(=O)N[C@@H](Cc1c[nH]c2ccccc12)C(=O)N[C@@H](CCC(N)=O)C(=O)N[C@@H](CC(C)C)C(=O)N[C@@H](CCCNC(=N)N)C(=O)c1nccs1` [Compound 5b, Ac-WQLR(SEQ ID NO: 3)-kt], the pIC50 was 9.00 on hepsin, 6.33 on HGFA [2] and 7.31 on matriptase. Further, the pKi at hepsin was 9.68; on HGFA [1], 7.19.

The molecule `CC(=O)N[C@@H](Cc1c[nH]c2ccccc12)C(=O)N[C@@H](CCC(N)=O)C(=O)N[C@@H](CC(C)C)C(=O)N[C@H](CCCNC(=N)N)C(=O)c1nccs1` [Compound 5b-1, Ac-WQLdR-kt] gave a pIC50 on HGFA [2] of 5.15.

With `CC(=O)N[C@@H](CCCCN)C(=O)N[C@@H](CCC(N)=O)C(=O)N[C@@H](Cc1ccccc1)C(=O)N[C@H](CCCNC(=N)N)C(=O)c1nccs1` [Compound 5c-1, Ac-KQFdR-kt], the pIC50 against HGFA [2] is 5.11.

`CC(=O)N[C@@H](CCCCN)C(=O)N[C@@H](Cc1ccccc1)C(=O)N[C@@H](CC(C)C)C(=O)N[C@@H](CCCNC(=N)N)C(=O)c1nccs1` [Compound 5d, Ac-KFLR(SEQ ID NO: 5)-kt]: the results for the pIC50 on hepsin, against HGFA [2] and at matriptase were 7.66, 6.48 and 7.46, respectively. For the same molecule, the pKi at hepsin was 8.68; at HGFA [1], 7.10; at matriptase (Table 4.2, Boc-QAR-AMC substrate), 7.82. The “selectivity among HGFA, matriptase and hepsin” value on HGFA [1] is “HGFA selectivity over both hepsin and matriptase”.

With `CC(=O)N[C@@H](CCCNC(=N)N)C(=O)N[C@@H](CCC(N)=O)C(=O)N[C@@H](CC(C)C)C(=O)N[C@H](CCCNC(=N)N)C(=O)c1nccs1` [Compound 5e-1, Ac-RQLdR-kt], at HGFA [2], the pIC50 is 5.51.

For the molecule `CC(=O)N[C@@H](CO)C(=O)N[C@@H](CCC(N)=O)C(=O)N[C@@H](CC(C)C)C(=O)N[C@@H](CCCNC(=N)N)C(=O)c1nccs1` [Compound 5f, Ac-SQLR(SEQ ID NO: 7)-kt], the pKi at HGFA [1] was 6.74. The molecule further showed a pIC50 against HGFA [2] of 6.74.

Turning to `CC(=O)N[C@@H](CO)C(=O)N[C@@H](CCCCN)C(=O)N[C@@H](CC(C)C)C(=O)N[C@H](CCCNC(=N)N)C(=O)c1nccs1` [Compound 6-1, Ac-SKLdR-kt], the pIC50 against HGFA [2] was 5.20.

Turning to `CC(=O)N[C@@H](CO)C(=O)N[C@@H](Cc1c[nH]cn1)C(=O)N[C@@H](CC(C)C)C(=O)N[C@@H](CCCNC(=N)N)C(=O)c1nccs1` [Compound 6a, Ac-SHLR(SEQ ID NO: 11)-kt], the results for the pIC50 at hepsin, on HGFA [2] and on matriptase were 8.30, 5.74 and 6.25, respectively. Further, the pKi at HGFA [1] was 6.48.

At HGFA [2], `CC(=O)N[C@@H](CO)C(=O)N[C@@H](Cc1c[nH]cn1)C(=O)N[C@@H](CC(C)C)C(=O)N[C@H](CCCNC(=N)N)C(=O)c1nccs1` [Compound 6a-1, Ac-SHLdR-kt] had a pIC50 of 4.67.

On to `CC(=O)N[C@@H](Cc1c[nH]c2ccccc12)C(=O)N[C@@H](CCCCN)C(=O)N[C@@H](CC(C)C)C(=O)N[C@@H](CCCNC(=N)N)C(=O)c1nccs1` [Compound 6b, Ac-WKLR(SEQ ID NO: 12)-kt], for which the pIC50 was 8.40 at hepsin, 6.49 against HGFA [2] and 7.01 on matriptase. In addition, the pKi at HGFA [1] is 7.25.

`CC(=O)N[C@@H](Cc1c[nH]c2ccccc12)C(=O)N[C@@H](CCCCN)C(=O)N[C@@H](CC(C)C)C(=O)N[C@H](CCCNC(=N)N)C(=O)c1nccs1` [Compound 6b-1, Ac-WKLdR-kt] had a pIC50 at HGFA [2] of 5.19.

In the case of `CC(=O)N[C@@H](CO)C(=O)N[C@@H](CCCCN)C(=O)N[C@@H](Cc1ccccc1)C(=O)N[C@H](CCCNC(=N)N)C(=O)c1nccs1` [Compound 6c-1, Ac-SKFdR-kt], the pIC50 against HGFA [2] is 4.97.

For `CC(=O)N[C@@H](CC(N)=O)C(=O)N[C@@H](CCCCN)C(=O)N[C@@H](CC(C)C)C(=O)N[C@@H](CCCNC(=N)N)C(=O)c1nccs1` [Compound 6d, Ac-NKLR(SEQ ID NO: 14)-kt], the pKi at hepsin is 8.85; at HGFA [1], 7.10. The pIC50 against HGFA [2] is 6.40.

Turning to `CC(=O)N[C@@H](CO)C(=O)N[C@H](CCCNC(=N)N)C(=O)N[C@@H](CC(C)C)C(=O)N[C@H](CCCNC(=N)N)C(=O)c1nccs1` [Compound 6e-3, Ac-SdRLdR-kt], the pIC50 against HGFA [2] was 4.92.

On to `CC(=O)N[C@H](C(=O)N[C@@H](CCCCN)C(=O)N[C@@H](CC(C)C)C(=O)N[C@@H](CCCNC(=N)N)C(=O)c1nccs1)[C@@H](C)O` [Compound 6f, Ac-TKLR(SEQ ID NO: 16)-kt], for which the pKi on HGFA [1] was 6.99. On HGFA [2], this molecule had a pIC50 of 6.25.

As to `CC(=O)N[C@@H](CCCNC(=N)N)C(=O)N[C@@H](CCCCN)C(=O)N[C@@H](CC(C)C)C(=O)N[C@@H](CCCNC(=N)N)C(=O)c1nccs1` [Compound 6h, Ac-RKLR(SEQ ID NO: 18)-kt], the pKi on HGFA [1] is 7.77. Moreover, at HGFA [2], the pIC50 is 6.43.

As to `CC(C)C[C@H](NC(=O)[C@H](CCC(N)=O)NC(=O)[C@@H](N)CCCCN)C(=O)N[C@@H](CCCNC(=N)N)C(=O)c1nccs1` [H-KQLR(SEQ ID NO: 1)-Kt], on HGFA [2], the pIC50 was 6.36.

On HGFA [2], `CC(C)C[C@H](NC(=O)[C@H](CCC(N)=O)NC(=O)[C@@H](N)CCCCN)C(=O)N[C@H](CCCNC(=N)N)C(=O)c1nccs1` [H-KQLdR-kt] had a pIC50 of 4.95.
